Data from patent publication US8563036B2, “Pharmaceutical compositions comprising Brivaracetam” (UCB Pharma, S.A., priority 2009, dated 2013).
In brackets after ≈: the same amount, converted by molar mass.

Key:
rat hippocampal slices [1] = experiment: Epileptiform responses in hippocampal slices (field potentials in CA3 area); assay type: cell-based, Sprague-Dawley rats; set-up: effect on rate of spontaneous field bursting: dose or concentration left out as unconfirmed; settings: for effect on rate of spontaneous field bursting: HKLCF; for effect on epileptiform responses (evoked PS1 amplitude, repetitive PSs): HKLCF perfusion (K+ 7.5 mM; Ca2+ 0.5 mM), fimbrial stimulation
Description: The effect of brivaracetam on epileptiform responses induced by high-K+/low-Ca2+ concentrations or by bicuculline was examined in transverse hippocampal slices prepared from Sprague-Dawley rats according to previously reported standard procedures. The epileptiform responses were induced by passing from a normal perfusion of artificial cerebrospinal fluid (ACSF) (K+3 mM; Ca2+2.4 mM) to either high-K+/low-Ca2+ fluid (HKLCF) (K+7.5 mM; Ca2+0.5 mM) or to […] bicuculline methiodide (BMI)-containing ACSF.
Extracellular field potentials (FPs) were recorded in the CA3 area of the slices with 2 M NaCl-filled glass microelectrodes. The evoked FPs were recorded at 10-min intervals in response to fimbrial stimulation with constant current rectangular pulses that elicit a single population spike (PS) of 50-75% of the maximal amplitude when the slice is in ACSF. In the HKLCF model, 2 min of spontaneous activity were also recorded, in the middle of each 10-min interval between the recordings of evoked responses.
Either brivaracetam or levetiracetam was added to the bathing fluid of the slices 20 min before shifting from ACSF to either HKLCF or […] BMI-containing ACSF, and was kept in the perfusion fluid throughout the experiment.

[2] = system: fully amygdala-kindled rats; experiment: Fully amygdala-kindled rats; assay type: in vivo; settings: for dose significantly reducing after-discharge duration: highest dose tested
[3] = system: Genetically sound-sensitive male mice; experiment: Audiogenic seizures in mice; assay type: in vivo; settings: audiogenic seizure-susceptible mice, i.p.
Excerpt: Audiogenic seizures in mice: Genetically sound-sensitive male mice (16-28 g; n=10 per group), responding with wild running, clonic and tonic convulsions to an acoustic stimulation, were used. Audiogenic seizures were induced by an acoustic stimulus (90 dB, 10-20 kHz) applied for 30 s.

mice [4] = experiment: Chemically induced seizures in mice (pentylenetetrazol); assay type: in vivo; settings: i.p. 30 min before seizure induction; higher ED50 values than audiogenic model
Description: The dose was selected based on dose-effect curves in saline-treated animals as the convulsive dose inducing clonic convulsions of all four extremities in 97% of the animals. Immediately after administration of the chemoconvulsant, the mice were placed individually in small plastic cages (25 13 8 cm) and observed for the presence of clonic convulsions in all four extremities, for 60 min. The occurrence of tonic convulsions (hindlimb extension) and mortality was also recorded during this interval.

mice [5] = experiment: Maximal electroshock in mice; assay type: in vivo; settings: i.p. 30 min before seizure induction; higher ED50 values than audiogenic model
GAERS rats = experiment: Spontaneous SWDs in GAERS rats; assay type: in vivo
mice [6] = experiment: Corneal kindling of mice; assay type: in vivo
[7] = Water solubility of the active ingredient
rat hippocampal slices [8] = settings: background statement; cited from earlier work

SMILES	BCS class (BCS classification)	effect on rate of spontaneous field bursting (rat hippocampal slices [1])	effect on epileptiform responses (evoked PS1 amplitude, repetitive PSs) (rat hippocampal slices [1])	dose from which significant suppression in motor-seizure severity was induced [2]	dose significantly reducing after-discharge duration [2]	protection against clonic convulsions [3]	protection against clonic convulsions induced by pentylenetetrazol (mice [4])	protection against tonic hindlimb extension induced by maximal electroshock (mice [5])	dose from which spontaneous SWDs were significantly suppressed (GAERS rats)	dose giving complete inhibition of spontaneous SWDs (GAERS rats; highest dose tested)	incidence of generalized motor seizures after termination of treatment (mice [6]; continued corneal stimulations, group previously treated with the highest dose)	incidence of generalized motor seizures (mice [6]; pretreatment during corneal kindling)	solubility [7]	effect on epileptiform responses induced by high-K+/low-Ca2+ and by bicuculline (rat hippocampal slices [8])
CCC[C@@H]1CC(=O)N([C@@H](CC)C(N)=O)C1 [Brivaracetam, (2S)-2-[(4R)-2-oxo-4-propyl-pyrrolidin-1-yl]butanamide]	BCS I	reduced the rate of this spontaneous bursting	reduced these epileptiform responses	21.2 mg/kg	212.3 mg/kg	protected against the expression of clonic convulsions	protected against clonic convulsions	protected	2.1 mg/kg	67.9 mg/kg	persistent reduction in the incidence of generalized motor seizures	significant reduction in the incidence of generalized motor seizures	~700 mg/mL (≈ 3300 mM)	–
CC[C@@H](C(N)=O)N1CCCC1=O [Levetiracetam]	–	not	reduced these epileptiform responses	170 mg/kg	> 1700 mg/kg	protected against the expression of clonic convulsions	–	–	–	–	–	–	–	reduces epileptiform responses
